The values below come from paper PMC10982093, “Identifying and characterising promising small molecule inhibitors of kinesin spindle protein using ligand-based virtual screening, molecular docking, molecular dynamics and MM‑GBSA calculations” (Journal of Computer-Aided Molecular Design, 2024).

One assay deals with T1, Eg5 ATPase (Homo sapiens, UniProt P52732).
T1 construct: purchased Cytoskeleton, Inc BK060
T1 sequence (P52732 1-1056): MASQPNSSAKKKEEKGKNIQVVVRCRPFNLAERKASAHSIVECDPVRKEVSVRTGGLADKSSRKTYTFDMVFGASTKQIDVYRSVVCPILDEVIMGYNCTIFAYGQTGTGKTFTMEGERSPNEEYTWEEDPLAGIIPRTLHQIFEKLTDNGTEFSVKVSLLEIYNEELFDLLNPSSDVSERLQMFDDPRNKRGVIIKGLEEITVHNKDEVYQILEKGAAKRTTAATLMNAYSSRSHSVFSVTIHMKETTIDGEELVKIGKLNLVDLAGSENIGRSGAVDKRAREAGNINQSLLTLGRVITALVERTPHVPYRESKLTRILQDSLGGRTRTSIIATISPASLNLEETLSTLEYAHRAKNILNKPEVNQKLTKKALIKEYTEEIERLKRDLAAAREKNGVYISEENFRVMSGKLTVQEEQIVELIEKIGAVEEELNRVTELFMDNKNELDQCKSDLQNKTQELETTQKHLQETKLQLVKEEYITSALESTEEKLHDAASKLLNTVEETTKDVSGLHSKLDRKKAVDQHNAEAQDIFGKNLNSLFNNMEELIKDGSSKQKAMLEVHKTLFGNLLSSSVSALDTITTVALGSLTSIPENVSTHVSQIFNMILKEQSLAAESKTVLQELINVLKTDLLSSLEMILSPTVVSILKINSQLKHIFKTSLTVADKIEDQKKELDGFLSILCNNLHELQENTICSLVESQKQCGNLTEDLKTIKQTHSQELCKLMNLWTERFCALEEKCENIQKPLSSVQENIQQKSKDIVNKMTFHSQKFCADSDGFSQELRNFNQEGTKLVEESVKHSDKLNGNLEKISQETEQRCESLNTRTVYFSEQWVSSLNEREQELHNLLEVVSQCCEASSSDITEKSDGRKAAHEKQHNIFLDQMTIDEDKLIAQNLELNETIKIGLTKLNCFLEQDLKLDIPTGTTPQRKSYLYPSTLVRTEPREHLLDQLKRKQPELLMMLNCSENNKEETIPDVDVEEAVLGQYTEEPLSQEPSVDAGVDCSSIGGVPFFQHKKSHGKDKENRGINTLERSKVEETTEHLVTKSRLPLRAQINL
Kind of assay: Microtubule-activated Eg5 ATPase inhibition assay (Kinesin ELISA kit BK060). It counts as biochemical. The note with it: for inhibition at 10 µM: mean of 3 replicates. The protocol:
Microtubule (MT)-activated enzymatic Eg5-ATPase activity were measured in order to evaluate the inhibitory activity of the selected compounds at […]. The MT—ATPase activity was analysed using Kinesin ELISA kit (BK060) (Cytoskeleton, Inc) and Monastrol was used as a control. The procedures were applied according to the manufacturer’s instructions. The IC50 of compound 5 which were required for inhibiting 50% of Eg5 ATPase activity was measured using ELISA kit (BK060) (Cytoskeleton, Inc, Denver, CO) according to the manufacturer’s instructions.
The Eg5 ATPase activity of the six hits at 10 µM was investigated in comparison to Monastrol (10 µM), as it acted as a positive control compound. […] Similarly compounds 1, 3 and 4 caused 40, 35 and 30% inhibition activity respectively.
(An ELISA detects its analyte on a solid surface through an enzyme-linked reagent.)

A further assay has as its target Eg5 protein. Also on record: method as in PMID 35251692. The note with it: read-out: Ki against Eg5 protein; cited from earlier work.
The subject of the next assay is Hela cells. As to the kind of experiment: Immunofluorescence assay, inhibition of mitotic spindle formation. It counts as cell-based. The note with it: 10 µM, 24 h, tubulin immunofluorescence. The protocol:
[…] Monastrol was used as a positive control, while 0.1% DMSO was used as a negative control. The cells were rinsed with PBS, fixed with 3.7% paraformaldehyde, and permeabilized with 0.1% Triton X-100. The cells were blocked with 1% BSA in PBS for 1 h prior to incubation with anti-β-tubulin mouse monoclonal antibody (#86,298, Cell Signaling, San Francisco, CA, USA) overnight at 4 °C. The cells were washed with PBS for 1 h in the dark, and then incubated with Alexa Fluor® 488 secondary antibodies (Abcam).
Further investigation of compound 5 was performed, which consisted of an immunofluorescence assay that was used to analyse the mechanism of compound 5 on the organisation of the microtubules into mitotic spindles during divisions of the cells.

As usually defined, the inhibition is how much of the control response was suppressed. Read a high inhibition as strong suppression. Broadly, the Ki is the dissociation constant of the complex between target and ligand, obtained from inhibition or displacement. The term IC50 denotes the concentration that gives 50% inhibition.

Regarding `Cc1ccc(O)c(C(=O)c2cnc3c(c2)c(-c2ccc(F)cc2)c(C#N)c(=O)n3C)c1` [Compound 4, 4-(4-fluorophenyl)-6-(2-hydroxy-5-methylbenzoyl)-1-methyl-2-oxo-1,8-naphthyridine-3-carbonitrile], at Eg5 ATPase, 10 µM produced 30% inhibition. `COc1ccc(CNc2nc3cc(C(=O)O)ccc3n2Cc2ccccc2C(F)(F)F)cc1` [Compound 1, 1-(2-(trifluoromethyl)benzyl)-2-(4-methoxybenzylamino)-1H-benzo[d]imidazole-5-carboxylic acid]: at Eg5 ATPase, testing at 10 µM gave an inhibition of 40%. As to `NC(=O)Nc1ccc(-c2ccc(C(F)(F)F)cc2)cc1F` [GSK-2], the Ki at Eg5 protein was 8.8 nM. Turning to `COc1cc2nc(-c3cc(-c4ccccc4Cl)nc4ccccc34)[nH]c2cc1OC` [Compound 3, 2-(2-chlorophenyl)-4-(5,6-dimethoxy-1H-benzo[d]imidazol-2-yl)quinoline], 10 µM produced 35% inhibition at Eg5 ATPase. Still for that read-out and setting: the result for `COc1ccc(C(=O)N2c3ccc(OC(=O)c4ccco4)cc3C(C)=CC2(C)C)cc1` [Compound 2, 1-(4-methoxybenzoyl)-2,2,4-trimethyl-1,2-dihydroquinolin-6-yl furan-2-carboxylate] reads ~25%. On Eg5 ATPase, `CCOC(=O)C1=C(C)NC(=S)NC1c1cccc(O)c1` (stereo not drawn) [Monastrol, reference compound] showed an inhibition at 10 µM of 60%. Besides, the Mitotic spindle morphology entry in the assay with Hela cells is recorded as “monopolar spindle profiles”.

Consider `CS(=O)(=O)c1ccc(CNc2nc3cc(C(=O)O)ccc3n2Cc2ccccc2C(F)(F)F)cc1` [Compound 6, 1-(2-(trifluoromethyl)benzyl)-2-(4-(methylsulfonyl)benzylamino)-1H-benzo[d]imidazole-5-carboxylic acid], for which the inhibition at 10 µM at Eg5 ATPase was ~25%.

With `Cn1c(=O)[nH]c(=O)c2c1nc(NCCCn1ccnc1)n2Cc1ccc2ccccc2c1` [Compound 5, 8-(3-(1H-imidazol-1-yl)propylamino)-3-methyl-7-((naphthalen-3-yl)methyl)-1H-purine-2,6(3H,7H)-dione], the inhibition at 10 µM on Eg5 ATPase is 50%. Moreover, the IC50 at Eg5 ATPase (read-out: IC50 against Eg5 ATPase) is 2370 ± 150 nM. Also, in the assay with Hela cells, the Mitotic spindle morphology entry is on record as “monopolar spindle profiles”. Turning to `O=C1CCc2cc(-c3ccc(C(F)(F)F)cc3)ccc2N1` [GSK-1], on Eg5 protein, the Ki was 1.8 nM.
